In patent publication US12180226B2, “Spirotricycle RIPK1 inhibitors and methods of uses thereof” (Merck Sharp & Dohme LLC, priority 2021, dated 2024) one finds EC50 data, which are given here for 27 compounds.

Broadly, the EC50 is the concentration that produces a half-maximal response.

For the assay, the target named is RIPK1 (recombinant GST-RIPK1 kinase domain, residues 1-327) (Homo sapiens (Human), UniProt Q13546). In words: RIPK1-ADP-Glo Enzymatic Assay. The assay is classed as biochemical. To be noted: ADP-Glo; 25 nM GST-RIPK1, 300 μM ATP; assay lower limit ~25 nM; read-out: RIPK1 V0 Ec50. Summed up: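 Using dephosphorylated MBP (3 μM) as substrate and 300 μM ATP, 25 nM baculovirus-produced enzyme was reacted for 150 min after a 30-min compound pre-incubation. Luminescent ADP detection followed; lower confidence limit ~25 nM.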
RIPK1 (recombinant GST-RIPK1 kinase domain, residues 1-327), sequence (Q13546 1-327): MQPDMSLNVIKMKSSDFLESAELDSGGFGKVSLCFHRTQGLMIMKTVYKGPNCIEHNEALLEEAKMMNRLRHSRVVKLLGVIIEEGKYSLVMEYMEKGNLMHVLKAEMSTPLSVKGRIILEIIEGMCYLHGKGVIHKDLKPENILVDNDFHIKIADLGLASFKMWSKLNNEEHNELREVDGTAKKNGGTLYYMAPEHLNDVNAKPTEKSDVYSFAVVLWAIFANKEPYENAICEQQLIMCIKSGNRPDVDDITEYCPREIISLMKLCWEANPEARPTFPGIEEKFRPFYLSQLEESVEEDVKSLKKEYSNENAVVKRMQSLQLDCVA
A general note: ADP-Glo turns the ADP formed in a reaction into a luminescent signal.

Structures are written as SMILES.

For the compound `COc1cc(N2CCC3(CC2)O[C@@H]2CC[C@@H](c4cc(F)cc(F)c4)N2C3=O)nc(C)c1C#N` [Example 4.69, 6-[(5′S,7a′R)-5′-(3,5-difluorophenyl)-3′-oxotetrahydro-1H,3′H-spiro[piperidine-4,2′-pyrrolo[2,1-b] [1,3]oxazol]-1-yl]-4-methoxy-2-methylpyridine-3-carbonitrile], the EC50 came out at 114 nM. For `O=C1N2C(CCC2c2cc(F)cc(F)c2)OC12CCN(c1cc(F)ccn1)CC2` (stereo not drawn) [Example 4.3, 5′-(3,5-difluorophenyl)-1-(4-fluoropyridin-2-yl)tetrahydro-3′H-spiro[piperidine-4,2′-pyrrolo[2,1-b] [1,3]oxazol]-3′-one], the EC50 is < 25 nM. For `O=C1N2[C@@H](CC[C@H]2c2ccccc2F)OC12CN(c1ccnc(-c3ccc(F)cc3)c1)C2` [Example 4.139, (5′S,7a′R)-5′-(2-fluorophenyl)-1-[2-(4-fluorophenyl)pyridin-4-yl]tetrahydro-3′H-spiro[azetidine-3,2′-pyrrolo[2,1-b] [1,3]oxazol]-3′-one], the EC50 is < 25 nM. `CC1CN(c2cc(C#N)ncn2)CCC12O[C@@H]1CC[C@@H](c3ccccc3)N1C2=O` (stereo partly drawn) [Example 4.237, 6-[(4R,5′S,7a′R)-3-methyl-3′-oxo-5′-phenyltetrahydro-1H,3′H-spiro[piperidine-4,2′-pyrrolo[2,1-b] [1,3]oxazol]-1-yl]pyrimidine-4-carbonitrile]: the half-maximal effective concentration (EC50) was < 25 nM. `Cc1ccncc1C(=O)N1CCC2(CC1)O[C@@H]1CC[C@@H](c3cc(F)cc(F)c3)N1C2=O` [Example 6.51, (5′S,7a′R)-5′-(3,5-difluorophenyl)-1-(4-methylpyridine-3-carbonyl)tetrahydro-3′H-spiro[piperidine-4,2′-pyrrolo[2,1-b] [1,3]oxazol]-3′-one]: the EC50 amounted to 600 nM. To `C#Cc1ccc(C(=O)N2CCC3(CC2)O[C@@H]2CC[C@@H](c4cc(F)cc(F)c4)N2C3=O)cc1` [Example 5.27, (5′S,7a′R)-5′-(3,5-difluoro-phenyl)-1-(4-ethynyl-benzoyl)tetrahydro-3′H-spiro[piperidine-4,2′-pyrrolo[2,1-b]oxazol]-3′-one] belongs 170 nM; to `O=C(c1cccc(N2CCCC2)n1)N1CCC2(CC1)O[C@@H]1CC[C@@H](c3cc(F)cc(F)c3)N1C2=O` [Example 6.96, (5′S,7a′R)-5′-(3,5-difluorophenyl)-1-[6-(pyrrolidin-1-yl)pyri-dine-2-carbonyl]tetra-hydro-3′H-spiro[piperi-dine-4,2′-pyrrolo[2,1-b][1,3]oxazol]-3′-one], 31.6 nM.

Consider `N#Cc1cccc(CN2CCC3(CC2)O[C@@H]2CC[C@@H](c4cc(F)cc(F)c4)N2C3=O)c1` [Example 22.6, 3-{[(5′S,7a′R)-5′-(3,5-difluorophenyl)-3′-oxotetrahydro-1H,3′H-spiro[piperidine-4,2′-pyrrolo[2,1-b][1,3]oxazol]-1-yl]methyl}benzonitrile], for which the EC50 amounted to 234 nM. With `O=C1N2[C@@H](CO[C@H]2c2cc(F)cc(F)c2)CC12CCN(c1ccnc3c(F)cnn13)CC2` (stereo in doubt) [Example 4.148, 3′-(3,5-difluorophenyl)-1-(3-fluoropyrazolo[1,5-a]pyrimidin-7-yl)dihydro-1′H,3′H,5′H-spiro[piperidine-4,6′-pyrrolo[1,2-c] [1,3]oxazol]-5′-one], the half-maximal effective concentration (EC50) is < 25 nM. Take `O=C1N2[C@@H](CC[C@H]2c2ccccc2)OC12CCN(c1cc(CF)ncn1)CC2` [Example 4.203, (5′S,7a′R)-1-[6-(fluoromethyl)pyrimidin-4-yl]-5′-phenyltetrahydro-3′H-spiro[piperidine-4,2′-pyrrolo[2,1-b] [1,3]oxazol]-3′-one]: the EC50 amounted to 48 nM. In the case of `O=C(c1ncnc2c1CCC2)N1CCC2(CC1)O[C@@H]1CC[C@@H](c3cc(F)cc(F)c3)N1C2=O` [Example 6.15, (5′S,7a′R)-5′-(3,5-difluorophenyl)-1-(6,7-dihydro-5H-cyclopenta[d]pyrim-idine-4-carbonyl)-tetrahydro-3′H-spiro [piperidine-4,2′-pyrrolo-[2,1-b][1,3]oxazol]-3′-one], the EC50 was 547 nM.

In the case of `O=C1N2[C@@H](CC[C@H]2c2cc(F)cc(F)c2)OC12CCN(C(c1ccccc1)C(F)F)CC2` (single isomer, unassigned) [Example 22.2, (5′S,7a′R)-1-(2,2-Difluoro-1-phenylethyl)-5′-(3,5-difluorophenyl)tetrahydro-3′H-spiro[piperidine-4,2′-pyrrolo[2,1-b]oxazol]-3′-one], the EC50 was 243 nM. As for `CC(C)(O)C#Cc1cccc(C(=O)N2CCC3(CC2)O[C@@H]2CC[C@@H](c4cc(F)cc(F)c4)N2C3=O)c1` [Example 5.24, (5′S,7a′R)-5′-(3,5-difluoro-phenyl)-1-(3-(3-hydroxy-3-methylbut-1-yn-1-yl)-benzoyl)tetrahydro-3′H-spiro[piperidine-4,2′-pyrrolo[2,1-b]oxazol]-3′-one], the EC50 is < 25 nM. In the case of `O=C(c1cccc(Cl)c1F)N1CCC2(CC1)O[C@@H]1CC[C@@H](c3cc(F)cc(F)c3)N1C2=O` [Example 5.60, (5′S,7a′R)-1-(3-chloro-2-fluorobenzoyl)-5′-(3,5-difluorophenyl)tetrahydro-3′H-spiro[piperidine-4,2′-pyrrolo[2,1-b]oxazol]-3′-one], the EC50 is < 25 nM. For the compound `Cn1cc([C@@H]2CC[C@H]3OC4(CCN(c5ccc(C#N)c6ncnn56)CC4)C(=O)N32)cn1` [Example 20.1, 5-((5′S,7a′R)-5′-(1-Methyl-1H-pyrazol-4-yl)-3′-oxotetrahydro-3′H-spiro[piperidine-4,2′-pyrrolo[2,1-b]oxazol]-1-yl)-[1,2,4]triazolo[1,5-a]pyridine-8-carbonitrile], the half-maximal effective concentration (EC50) is 45.4 nM.

On to `O=C1N2[C@@H](CC[C@H]2c2ccccc2F)OC12CCN(c1ccnc3c(F)cnn13)CC2` [Example 4.102, (5′S,7a′R)-5′-(2-fluorophenyl)-1-(3-fluoropyrazolo[1,5-a]pyrimidin-7-yl)tetrahydro-3′H-spiro[piperidine-4,2′-pyrrolo[2,1-b]oxazol]-3′-one], for which the EC50 is < 25 nM. Next, `N#Cc1ccc(N2CCC3(CC2)O[C@@H]2CC[C@@H](c4cc(F)cc(F)c4)N2C3=O)nn1` [Example 4.100, 6-((5′S,7a′R)-5′-(3,5-difluorophenyl)-3′-oxotetrahydro-3′H-spiro[piperidine-4,2′-pyrrolo[2,1-b]oxazol]-1-yl)pyridazine-3-carbonitrile]: 240 nM.

`N#Cc1ccc(N2CCC3(CC2)O[C@@H]2CC[C@@H](c4cccc(F)c4)N2C3=O)c(F)c1` [Example 4.53, 3-fluoro-4-[(5′S,7a′R)-5′-(3-fluorophenyl)-3′-oxotetrahydro-1H,3′H-spiro[piperidine-4,2′-pyrrolo[2,1-b] [1,3]oxazol]-1-yl]benzonitrile]: the EC50 was < 25 nM. On to `O=C(c1cccc(F)c1)N1CCC2(CC1)O[C@@H]1CC[C@@H](c3ccccc3)N1C2=O` [Example 6.154, (5′S,7a′R)-1-(3-fluoro-benzene-1-carbonyl)-5′-phenyltetrahydro-3′H-spiro[piperidine-4,2′-pyrrolo[2,1-b] [1,3]oxazol]-3′-one], for which the EC50 was < 25 nM. As to `O=C(c1cccc2nccnc12)N1CCC2(CC1)O[C@@H]1CC[C@@H](c3cc(F)cc(F)c3)N1C2=O` [Example 6.55, (5′S,7a′R)-5′-(3,5-difluorophenyl)-1-(quinoxaline-5-carbon-yl)tetrahydro-3′H-spiro[piperidine-4,2′-pyrrolo[2,1-b][1,3]-oxazol]-3′-one], the 50% effective concentration (EC50) was found to be 280 nM. Next, `Cc1c(Cl)ncnc1N1CCC2(CC1)O[C@@H]1CC[C@@H](c3ccccc3)N1C2=O` [Example 4.30, (5′S,7a′R)-1-(6-chloro-5-methylpyrimidin-4-yl)-5′-phenyltetrahydro-3′H-spiro[piperidine-4,2′-pyrrolo[2,1-b] [1,3]oxazol]-3′-one]: < 25 nM; `N#Cc1ccccc1C(=O)N1CCC2(CC1)O[C@@H]1CC[C@@H](c3ccccc3)N1C2=O` [Example 6.147, 2-[(5′S,7a′R)-3′-oxo-5′-phenyltetrahydro-1H,3′H-spiro[piperi-dine-4,2′-pyrrolo[2,1-b][1,3]oxazole]-1-carbonyl]benzonitrile]: 328 nM. To `CC(F)c1cc(N2CCC3(CC2)O[C@@H]2CC[C@@H](c4ccccc4)N2C3=O)ncn1` (stereo partly drawn) [Example 4.214, (5′S,7a′R)-1-[6-(1-fluoroethyl)pyrimidin-4-yl]-5′-phenyltetrahydro-3′H-spiro[piperidine-4,2′-pyrrolo[2,1-b] [1,3]oxazol]-3′-one] belongs 128 nM; to `Cc1cnc(-c2ccc(N3CCC4(CC3)O[C@@H]3CC[C@@H](c5ccccc5)N3C4=O)n3nccc23)o1` [Example 21.17, (5′S,7a′R)-1-[4-(5-methyl-1,3-oxazol-2-yl)pyrazolo[1,5-a]pyridin-7-yl]-5′-phenyltetrahydro-3′H-spiro[piperidine-4,2′-pyrrolo[2,1-b][1,3]oxazol]-3′-one], < 25 nM; to `Cc1ccn(-c2cccc(N3CCC4(CC3)O[C@@H]3CC[C@@H](c5ccccc5)N3C4=O)n2)n1` [Example 4.263, (5′S,7a′R)-1-[6-(3-methyl-1H-pyrazol-1-yl)pyridin-2-yl]-5′-phenyltetrahydro-3′H-spiro[piperidine-4,2′-pyrrolo[2,1-b] [1,3]oxazol]-3′-one], 26.2 nM. In the case of `O=C(c1nc(Br)ccc1F)N1CCC2(CC1)O[C@@H]1CC[C@@H](c3cc(F)cc(F)c3)N1C2=O` [Example 6.82], the EC50 was < 25 nM.

For the compound `N#Cc1cnc(N2CCC3(CC2)O[C@@H]2CC[C@@H](c4ccccc4)N2C3=O)c(F)c1` [Example 4.72, 5-fluoro-6-[(5′S,7a′R)-3′-oxo-5′-phenyltetrahydro-1H,3′H-spiro[piperidine-4,2′-pyrrolo[2,1-b] [1,3]oxazol]-1-yl]pyridine-3-carbonitrile], the EC50 is 29.8 nM.
